Data on nine compounds can be found in article PMC7567930 (Heliyon, 2020).

Structures are written as SMILES. Entries after “also recorded” stand apart in the source; their conditions may differ. Like-named read-outs stand apart in the source and are kept apart here.

The test deals with Jack bean urease (Canavalia ensiformis, UniProt P07374). The test can be described thus: Jack bean urease inhibition. It counts as biochemical.
Setting [1] is: read-out: IC50 ± SEM, Table 2, derivatives 6a-6f, triplicate.
Where [2] appears, read: IC50 ± SEM, Table 1, derivatives 3a-3f, triplicate.
Setting [3] is: urease inhibition IC50, values in the abstract.

Sequence of Jack bean urease (P07374 whole entry, looked up): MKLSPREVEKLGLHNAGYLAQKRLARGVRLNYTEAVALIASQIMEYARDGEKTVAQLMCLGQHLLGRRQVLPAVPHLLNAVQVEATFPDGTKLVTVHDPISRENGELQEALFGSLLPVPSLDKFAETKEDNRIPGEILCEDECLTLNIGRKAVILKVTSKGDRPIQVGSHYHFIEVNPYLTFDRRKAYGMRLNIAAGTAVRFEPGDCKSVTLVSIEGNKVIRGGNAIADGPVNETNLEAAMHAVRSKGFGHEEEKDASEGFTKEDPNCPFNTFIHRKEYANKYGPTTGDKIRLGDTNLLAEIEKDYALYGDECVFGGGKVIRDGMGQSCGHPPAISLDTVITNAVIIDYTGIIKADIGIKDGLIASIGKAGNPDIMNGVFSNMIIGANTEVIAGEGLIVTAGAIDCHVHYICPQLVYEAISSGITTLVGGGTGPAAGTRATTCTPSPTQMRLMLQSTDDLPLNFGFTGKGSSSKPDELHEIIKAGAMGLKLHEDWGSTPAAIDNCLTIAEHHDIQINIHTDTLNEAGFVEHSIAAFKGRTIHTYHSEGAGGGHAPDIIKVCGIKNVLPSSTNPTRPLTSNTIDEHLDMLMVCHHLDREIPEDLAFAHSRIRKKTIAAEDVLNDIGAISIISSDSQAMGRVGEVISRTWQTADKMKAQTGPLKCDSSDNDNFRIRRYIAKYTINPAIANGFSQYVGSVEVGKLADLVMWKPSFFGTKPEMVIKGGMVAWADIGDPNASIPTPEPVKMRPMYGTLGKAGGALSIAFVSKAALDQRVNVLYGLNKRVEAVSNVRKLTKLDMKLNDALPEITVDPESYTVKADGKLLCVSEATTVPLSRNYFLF

By IC50 is commonly meant the concentration that gives 50% inhibition. In the case of `NC(N)=S` [thiourea, reference compound], the IC50 (read-out: IC50 of reference thiourea, standard inhibitor) is 20.9 µM.
On to `COc1ccc2cc(C(C)n3cnc4ccccc43)ccc2c1` (racemic) [6f], for which, under setting [1], the IC50 is 39 ± 2.4 µM.
Same read-out and setting: to `COc1ccc2cc(C(C)c3nc4ccc(Cl)cc4[nH]3)ccc2c1` (racemic) [6b, (±)-6-chloro-2-((R)-1-(2-methoxynaphthalen-6-yl)ethyl)-1H-benzo[d]imidazol] belongs 36 ± 1.7 µM; to `COc1ccc2cc(C(C)c3nc4ccc(C)cc4[nH]3)ccc2c1` (racemic) [6e, (±)-6-methyl-2-((R)-1-(2-methoxynaphthalen-6-yl)ethyl)-1H-benzo[d] imidazol], 44 ± 2.4 µM; to `COc1ccc2cc(C(C)c3nc4ccc(Br)cc4[nH]3)ccc2c1` (racemic) [6c, (±)-6-bromo-2-((R)-1-(2-methoxynaphthalen-6-yl)ethyl)-1H-benzo[d]imidazol], 51 ± 9.3 µM.
`CC(O)c1nc2ccccc2[nH]1` (single isomer, unassigned) [compound 3a, (R or S)-1-(1H-benzo[d]imidazol-2-yl)ethanol]: the “urease inhibition, result in words” value is “significant urease inhibition; also recorded: good enzyme inhibitory activity; also recorded: most potent”. Under setting [2], this compound yielded an IC50 of 22 ± 6.2 µM. For the same compound, the half-inhibitory concentration (IC50) under setting [3] was 22.3 ± 6.2 µM.
Consider `CC(O)c1nc2ccccc2[nH]1` (single isomer, unassigned) [compound 3f, (R or S)-1-(1H-benzo[d]imidazol-2-yl)ethanol], for which the “urease inhibition, result in words” value is reported as “significant urease inhibition; also recorded: good enzyme inhibitory activity; also recorded: most potent”. This compound registered an IC50 under setting [2] of 31 ± 23.3 µM. Moreover, 31.4 ± 23.3 µM corresponded to half-maximal inhibition under setting [3] (IC50).
Regarding `COc1ccc2cc(C(C)n3cnc4ccccc43)ccc2c1` (racemic) [6a], under setting [1], the IC50 is 38 ± 1.3 µM.
`COc1ccc2cc(C(C)c3nc4ccc([N+](=O)[O-])cc4[nH]3)ccc2c1` (racemic) [compound 6d, (±)-6-Nitro-2-((R)-1-(2-methoxynaphthalen-6-yl)ethyl)-1H-benzo[d]imidazol]: the “urease inhibition, result in words” value is recorded as “not showing significant urease inhibition”. In addition, the 50% inhibitory concentration (IC50) under setting [1] was determined as 99 ± 9.4 µM.
